Laboratory results from patent publication US8409581B2, “Compounds for treating amyloidoses” (Affiris AG, priority 2008, dated 2013).
Ends that are not written are not given here.

tested on: monoclonal antibody MV-002 binding to the original epitope; test: In vitro inhibition assay (ELISA); set-up: species or system mice; conditions: OD at 5 ug peptide compared to original peptide; MV-002
Description: 2. In Vitro Inhibition Assay (ELISA)
Different amounts of peptides (concentrations ranging from 5 μg to 0.03 μg; serial dilutions), derived from Phage Display were incubated with the monoclonal antibody that was used for the screening procedure. Peptides diminishing subsequent binding of the antibody to the original epitope coated on ELISA plates were considered as inhibiting in this assay.

Question: Which “Inhibition Capacity (competition code)” value does the source give for “SHQRLWFC [p4674, MV-002 mimotope peptide]” here?
Answer: 1 (Weaker than original epitope (OD of peptide below 4, 6 times of original peptide))

Question: How did the “Inhibition Capacity (competition code)” value turn out when “NDAKIVFC [p4667, MV-002 mimotope peptide]” was run?
Answer: 1 (Weaker than original epitope (OD of peptide below 4, 6 times of original peptide))

Question: With “GEIQFGAC [p4699, MV-002 mimotope peptide]” as the substance, how does the “Inhibition Capacity (competition code)” value read?
Answer: 1 (Weaker than original epitope (OD of peptide below 4, 6 times of original peptide))

Question: With “GELWFPC [p4673, MV-002 mimotope peptide]” as the substance, how does the “Inhibition Capacity (competition code)” value read?
Answer: 1 (Weaker than original epitope (OD of peptide below 4, 6 times of original peptide))

Question: “GEILFGMC [p4689, MV-002 mimotope peptide]” was tested. Which “Inhibition Capacity (competition code)” value did it give?
Answer: 1 (Weaker than original epitope (OD of peptide below 4, 6 times of original peptide))

Question: For “HQKMIFC [p4794, MV-002 mimotope peptide]”, which “Inhibition Capacity (competition code)” value is on record?
Answer: 1 (Weaker than original epitope (OD of peptide below 4, 6 times of original peptide))

Question: How did the “Inhibition Capacity (competition code)” value turn out when “GEIKFDHC [p4698, MV-002 mimotope peptide]” was run?
Answer: 2 (strong inhibition (as original epitope; OD of peptide below 2, 3 times of original peptide))

tested on: monoclonal antibody MV-002; test: In vitro binding assay (ELISA) of mimotopes to parental antibody; set-up: species or system mice; conditions: peptide coupled to BSA bound to ELISA plates (1 μM); parental antibody MV-002
Description: 1. In Vitro Binding Assay (ELISA)
Peptides derived from Phage Display as well as variants thereof were coupled to BSA and bound to ELISA plates (1 μM; as indicated in the respective figures) and subsequently incubated with the monoclonal antibody that was used for the screening procedure to analyse binding capacity of identified peptides.

Question: With “QLPLFVLC [p4700, MV-002 mimotope peptide]” as the substance, how does the “Binding Capacity (binding code; OD halfmax 1:X, dilution factor of the parental AB)” value (shortened to “Binding Capacity”) read?
Answer: 1 (weak binding :<40000)

Question: For “SGEIYFERC [p4805, MV-002 mimotope peptide]”, which “Binding Capacity” value is on record?
Answer: 1 (weak binding :<40000)

Question: How did the “Binding Capacity” value turn out when “SGEYVFHC [p4404, MV-002 mimotope peptide]” was run?
Answer: 1 (weak binding :<40000)

Question: How did the “Binding Capacity” value turn out when “GTIFFRDC [p4692, MV-002 mimotope peptide]” was run?
Answer: 1 (weak binding :<40000)

Question: Which “Binding Capacity” value does the source give for “SHQRLWFC [p4674, MV-002 mimotope peptide]” here?
Answer: 3 (strong binding :>320000)

Question: With “NDAKIVFC [p4667, MV-002 mimotope peptide]” as the substance, how does the “Binding Capacity” value read?
Answer: 3 (strong binding :>320000)

Question: With “GQIMFPRC [p4686, MV-002 mimotope peptide]” as the substance, how does the “Binding Capacity” value read?
Answer: 3 (strong binding :>320000)

Question: “Ac-GEIYFERC [p4804, MV-002 mimotope peptide, N-terminally acetylated]” was tested. Which “Binding Capacity” value did it give?
Answer: 2 (medium binding :40000-320000)

Question: With “THQRLWFC [p4693, MV-002 mimotope peptide]” as the substance, how does the “Binding Capacity” value read?
Answer: 3 (strong binding :>320000)

Question: For “GQIQFPLC [p4697, MV-002 mimotope peptide]”, which “Binding Capacity” value is on record?
Answer: 3 (strong binding :>320000)

Question: “GQIIFQSC [p4668, MV-002 mimotope peptide]” was tested. Which “Binding Capacity” value did it give?
Answer: 2 (medium binding :40000-320000)

Question: How did the “Binding Capacity” value turn out when “KLPLFVMC [p4691, MV-002 mimotope peptide]” was run?
Answer: 1 (weak binding :<40000)

Question: With “GEMWFALC [p4671, MV-002 mimotope peptide]” as the substance, how does the “Binding Capacity” value read?
Answer: 3 (strong binding :>320000)

Question: How did the “Binding Capacity” value turn out when “AIPLFVMC [p4682, MV-002 mimotope peptide]” was run?
Answer: 1 (weak binding :<40000)

Question: For “GMIVFPHC [p4679, MV-002 mimotope peptide]”, which “Binding Capacity” value is on record?
Answer: 3 (strong binding :>320000)

Question: Which “Binding Capacity” value does the source give for “GEIQFGAC [p4699, MV-002 mimotope peptide]” here?
Answer: 3 (strong binding :>320000)

Question: With “GSLFFWPC [p4688, MV-002 mimotope peptide]” as the substance, how does the “Binding Capacity” value read?
Answer: 2 (medium binding :40000-320000)

Question: “GTLIFHHC [p4695, MV-002 mimotope peptide]” was tested. Which “Binding Capacity” value did it give?
Answer: 2 (medium binding :40000-320000)

Question: Which “Binding Capacity” value does the source give for “GELWFPC [p4673, MV-002 mimotope peptide]” here?
Answer: 3 (strong binding :>320000)

Question: “GEMQFFIC [p4676, MV-002 mimotope peptide]” was tested. Which “Binding Capacity” value did it give?
Answer: 3 (strong binding :>320000)

Question: “GQIKFAQC [p4694, MV-002 mimotope peptide]” was tested. Which “Binding Capacity” value did it give?
Answer: 3 (strong binding :>320000)

Question: “GELYFRAC [p4677, MV-002 mimotope peptide]” was tested. Which “Binding Capacity” value did it give?
Answer: 3 (strong binding :>320000)

Question: “GELQFPPC [p4672, MV-002 mimotope peptide]” was tested. Which “Binding Capacity” value did it give?
Answer: 3 (strong binding :>320000)

Question: Which “Binding Capacity” value does the source give for “SGQIWFRC [p4414, MV-002 mimotope peptide]” here?
Answer: 1 (weak binding :<40000)

Question: How did the “Binding Capacity” value turn out when “GEIRFELC [p4796, MV-002 mimotope peptide]” was run?
Answer: 2 (medium binding :40000-320000)

Question: “GDLKFPLC [p4683, MV-002 mimotope peptide]” was tested. Which “Binding Capacity” value did it give?
Answer: 3 (strong binding :>320000)

Question: How did the “Binding Capacity” value turn out when “GEIRFGSC [p4696, MV-002 mimotope peptide]” was run?
Answer: 3 (strong binding :>320000)

Question: Which “Binding Capacity” value does the source give for “GQLKFPFC [p4690, MV-002 mimotope peptide]” here?
Answer: 3 (strong binding :>320000)

Question: With “GEILFGMC [p4689, MV-002 mimotope peptide]” as the substance, how does the “Binding Capacity” value read?
Answer: 3 (strong binding :>320000)

Question: For “HQKMIFC [p4794, MV-002 mimotope peptide]”, which “Binding Capacity” value is on record?
Answer: 2 (medium binding :40000-320000)

Question: “GEIKFDHC [p4698, MV-002 mimotope peptide]” was tested. Which “Binding Capacity” value did it give?
Answer: 3 (strong binding :>320000)

Question: With “GQIWFISC [p4666, MV-002 mimotope peptide]” as the substance, how does the “Binding Capacity” value read?
Answer: 1 (weak binding :<40000)

Question: For “GEIRFALC [p4678, MV-002 mimotope peptide]”, which “Binding Capacity” value is on record?
Answer: 3 (strong binding :>320000)

Question: Which “Binding Capacity” value does the source give for “GELFFPKC [p4685, MV-002 mimotope peptide]” here?
Answer: 3 (strong binding :>320000)

Question: For “CGEIYFER [p4807, MV-002 mimotope peptide]”, which “Binding Capacity” value is on record?
Answer: 1 (weak binding :<40000)

Question: With “SGEIHFNC [p4415, MV-002 mimotope peptide]” as the substance, how does the “Binding Capacity” value read?
Answer: 1 (weak binding :<40000)

Question: How did the “Binding Capacity” value turn out when “HMRMYFEC [p4687, MV-002 mimotope peptide]” was run?
Answer: 3 (strong binding :>320000)

Question: Which “Binding Capacity” value does the source give for “AGEIYFERC [p4806, MV-002 mimotope peptide]” here?
Answer: 1 (weak binding :<40000)

Question: Which “Binding Capacity” value does the source give for “GQIRFDHC [p4669, MV-002 mimotope peptide]” here?
Answer: 3 (strong binding :>320000)

Question: “SGQLKFPC [p4413, MV-002 mimotope peptide]” was tested. Which “Binding Capacity” value did it give?
Answer: 1 (weak binding :<40000)

Question: For “GELFFEKC [p4795, MV-002 mimotope peptide]”, which “Binding Capacity” value is on record?
Answer: 2 (medium binding :40000-320000)

Question: How did the “Binding Capacity” value turn out when “GQILFPVC [p4684, MV-002 mimotope peptide]” was run?
Answer: 3 (strong binding :>320000)
